Test results: patent US6566349B1 (priority 2000, dated 2003)
Like-named read-outs stand apart in the source and are kept apart here.

Key:
Bandedwinged Whitefly [1] = settings: in vivo
Bandedwinged Whitefly [2] = settings: in vivo; remark: listed apart in the source
Thrips = assay type: in vivo
Beet Armyworm [3] = assay: Control of beet armyworm in cotton; assay type: in vivo, beet armyworm (Spodoptera exigua)
Tobacco Budworm = assay: Tobacco budworm boll damage in cotton; assay type: in vivo, tobacco budworm (Heliothis virescens); settings: 50 bolls, lb./A: chlorpyrifos + dimethoate 0.62, chlorpyrifos 0.50, Dash 2.0, control 45
Beet Armyworm [4] = assay: Control of beet armyworm in sweet corn; assay type: in vivo, beet armyworm (Spodoptera exigua)
Fall Armyworm = assay: Control of fall armyworm in sweet corn; assay type: in vivo, fall armyworm (S. fruqiperda)
[5] = tested on: cabbage looper (Trichoplasia ni); assay: Control of cabbage pests in cabbage: cabbage looper; assay type: in vivo
[6] = tested on: diamondback moth (Plutella xylostelia); assay: Control of cabbage pests in cabbage: diamondback moth; assay type: in vivo
[7] = tested on: imported cabbageworm (Pieris rapae); assay: Control of cabbage pests in cabbage: imported cabbageworm; assay type: in vivo
cotton aphid [8] = assay type: in vivo
cotton aphid [9] = assay type: in vivo; settings: for Cotton aphid count 2 days after treatment: 5 leaves per plot, untreated 1277; for Cotton aphid count 2 days after treatment / Cotton aphid % control 2 days after treatment: lb./A: methyl parathion 0.5, oxydemeton-methyl 0.25, Dash 2.0, 53 gallons/A
[10] = tested on: Colorado Potato Beetle (Leptinotarsa decemlineata); assay: Control of Colorado potato beetle in potatoes; assay type: in vivo; settings: adjuvant 0.88 lb/A where added; for Total Number of larvae from a six meter plot, 3 DAT L2 / Total Number of larvae from a six meter plot, 7 DAT L2: first and second instar; for Total Number of larvae from a six meter plot, 3 DAT L4 / Total Number of larvae from a six meter plot, 7 DAT L4: third and fourth instar
Source text: The efficacy of Guthion™ (azinphosmethyl) alone and in combination with Dash HC® against the Colorado Potato Beetle (Leptinotarsa decemlineata) on potatoes. The test plot area was monitored for the presence of significant naturally occurring populations of the target pest, Colorado potato beetle (CPB). At the critical pest population threshold, treatments were applied to 6 meter, single row plots of the crop using a CO2 pressurized backpack sprayer.
Treatments were sprayed on potatoes in the early bloom stage to a mature population of the Colorado potato beetle. Larvae were evaluated in two classes: class one=first and second instar larvae, class two=third and fourth instar. Population counts were taken at 3 and 7 days after treatment. Trial results can be seen in Table 8.
Azinphosmethyl was applied at a rate of 0.375 lb ai/A. The recommended rate for CPB control. The insecticide was combined with water at a rate of 64.1 gal/acre. […].
Azinphosmethyl was applied at a rate of 0.30 lb ai/A. This is a 20% reduction below the recommended rate for CPB control. The insecticide was combined with water at a rate of 64.1 gal/Acre.
Azinphosmethyl was applied at a rate of 0.19 lb ai/A. This is ½ of the recommended label rate for CPB control. The insecticide was combined with water at a rate of 64.1 gal/acre.
Azinphosmethyl was applied at a rate of 0.375 lb ai/A. The recommended rate for CPB control. The insecticide was combined with water at a rate of 64.1 gal/a.
Azinphosmethyl was applied at a rate of 0.30 lb ai/A. This is a 20% reduction below the recommended rate for CPB control. The insecticide was combined with water at a rate of 64.1 gal/Acre. […] With the 64.1 gal of water used to deliver the mix, the resultant adjuvant concentration was 0.383%.
Azinphosmethyl was applied at a rate of 0.19 lb ai/A. This is ½ of the recommended label rate for CPB control. The insecticide was combined with water at a rate of 64.1 gal/acre. […] With the 64.1 gal of water used to deliver the mix, the resultant adjuvant concentration was 0.383%.

[11] = cotton, lb./A: acephate 0.20, dicrotophos 0.20, Dash 2.0
[12] = lb./A: chlorpyrifos + dimethoate 0.45, chlorpyrifos 0.94, Dash 2.0
[13] = chlorpyrifos 0.62 lb.ai/A, DASH 0.88 lb/a where added
[14] = chlorpyrifos 1.0 lb.ai/A, DASH 0.88 lb/a where added
[15] = chlorpyrifos 1.24 lb.ai/A alone (treatment B), control 2.3

COP(=O)(NC(C)=O)SC (stereo not shown) [Acephate, O,S-dimethyl acetylphosphoramidothioate]
# Whitefly adults counted, 7 days after treatment (Bandedwinged Whitefly [1]): 54 | Whitefly adults % control, 3 days after treatment (Bandedwinged Whitefly [1]): (98) % | Whitefly adults % control, 7 days after treatment (Bandedwinged Whitefly [1]): (90) % | Whitefly adults % control, 3 days after treatment (Bandedwinged Whitefly [2]): (98) % | Thrips % control, 1 DAT (Thrips; [11]): (80) % | Thrips % control, 5 DAT (Thrips; [11]): (35) % | Thrips % control, 9 DAT (Thrips; [11]): (44) % | # Thrips/10 Plants, 0 DAT (Thrips; cotton, lb./A: acephate 0.20, dicrotophos 0.20, Dash 2.0, 15 gallons/A, control 252 ± 88): 174 ± 50 | # Thrips/10 Plants, 9 DAT (Thrips; cotton, lb./A: acephate 0.20, dicrotophos 0.20, Dash 2.0, control 36 ± 32): 20 ± 18 | # Thrips/10 Plants, 5 DAT (Thrips; cotton, lb./A: acephate 0.20, dicrotophos 0.20, Dash 2.0, control 65 ± 43): 42 ± 17 | # Thrips/10 Plants, 1 DAT (Thrips; cotton, lb./A: acephate 0.20, dicrotophos 0.20, Dash 2.0, control 115 ± 50): 21 ± 9

CCOP(=S)(OCC)Oc1nc(Cl)c(Cl)cc1Cl [Chlorpyrifos]
beet armyworm control, tankmixed with Dash versus applied alone at the same rates (Beet Armyworm [3]; chlorpyrifos at half-to-two-thirds the labeled rate): effective and better beet armyworm control when takmixed with Dash than when applied alone | # Beet Armyworms 3 days after treatment (Beet Armyworm [3]; cotton, 13-ft row section, lb./A: chlorpyrifos + dimethoate 0.62, chlorpyrifos 0.50, Dash 2.0, 20 gallons/A, control 112): 73 | Beet Armyworms % control 3 days after treatment (Beet Armyworm [3]; cotton, lb./A: chlorpyrifos + dimethoate 0.62, chlorpyrifos 0.50, Dash 2.0): 38% | % Bolls Damaged by Tobacco Budworm 3 DAT (Tobacco Budworm): 42% | Beet Armyworm % control 4 DAT (Beet Armyworm [4]; [12]): 66% | # Beet Armyworm 4 DAT (Beet Armyworm [4]; lb./A: chlorpyrifos + dimethoate 0.45, chlorpyrifos 0.94, Dash 2.0, 33 gallons/A, control 3): 1 | Fall Armyworm % control 4 DAT (Fall Armyworm; [12]): 95% | # Fall Armyworm 4 DAT (Fall Armyworm; lb./A: chlorpyrifos + dimethoate 0.45, chlorpyrifos 0.94, Dash 2.0, 33 gallons/A, control 5): 0.25 | # of larvae TRIPNI 4DAT ([5]; 3 plants per plot, chlorpyrifos 1.24 lb.ai/A alone (treatment B), control 1.7): 0.7 | # of larvae TRIPNI 4DAT [5, 13]: 2.7 | # of larvae TRIPNI 7DAT [5, 13]: 0.7 | # of larvae TRIPNI 4DAT [5, 14]: 1.3 | # of larvae TRIPNI 7DAT [5, 14]: 2.0 | # of larvae TRIPNI 7DAT ([5]; chlorpyrifos 1.24 lb.ai/A alone (treatment B), control 0.3): 0.7 | # of larvae PLUTMA 4DAT [6, 13]: 0.7 | # of larvae PLUTMA 7DAT [6, 13]: 0.3 | # of larvae PLUTMA 4DAT [6, 14]: 0.3 | # of larvae PLUTMA 7DAT [6, 14]: 0 | # of larvae PLUTMA 7DAT ([6]; chlorpyrifos 1.24 lb.ai/A alone (treatment B), control 1.7): 1.0 | # of larvae PLUTMA 4DAT [6, 15]: 1.0 | # of larvae PIERRA 4DAT [7, 13]: 0 | # of larvae PIERRA 7DAT [7, 13]: 0.3 | # of larvae PIERRA 4DAT [7, 14]: 0 | # of larvae PIERRA 7DAT [7, 14]: 1.0 | # of larvae PIERRA 7DAT [7, 15]: 1.3 | # of larvae PIERRA 4DAT ([7]; chlorpyrifos 1.24 lb.ai/A alone (treatment B), control 4.7): 0

COP(=O)(OC)O/C(C)=C/C(=O)N(C)C [Dicrotophos]
# Thrips/10 Plants, 0 DAT (Thrips; in vivo): 228 ± 108 | # Thrips/10 Plants, 1 DAT (Thrips; in vivo): 31 ± 12 | # Thrips/10 Plants, 5 DAT (Thrips; in vivo): 36 ± 28 | # Thrips/10 Plants, 9 DAT (Thrips; in vivo): 35 ± 16 | Thrips % control, 1 DAT (Thrips; in vivo): (73) % | Thrips % control, 5 DAT (Thrips; in vivo): (45) % | Thrips % control, 9 DAT (Thrips; in vivo): (03) %

CNC(=O)CSP(=S)(OC)OC [Dimethoate, O,O-dimethyl S-methylcarbamoylmethyl phosphorodithioate]
aphid control on tank-mixing with the adjuvant (cotton aphid [8]; in vivo): Improvement in aphid control | Cotton aphid count 2 days after treatment (cotton aphid [8]; okra, 20 leaves per plot, lb./A: methyl parathion 0.5, dimethoate 0.25, chlorpyrifos 0.17 + dimethoate 0.14, Dash 2.0, 30 gallons/A, untreated 132): 19 | Cotton aphid % control 2 days after treatment (cotton aphid [8]; okra, lb./A: methyl parathion 0.5, dimethoate 0.25, chlorpyrifos 0.17 + dimethoate 0.14, Dash 2.0, 30 gallons/A): 86%

COP(=S)(OC)Oc1ccc([N+](=O)[O-])cc1 [Methyl parathion, O,O-dimethyl O-(4-nitrophenyl)phosphorothioate]
Cotton aphid count 2 days after treatment (cotton aphid [9]): 293 | Cotton aphid % control 2 days after treatment (cotton aphid [9]): 77% | cotton aphid control, tank-mixed with the adjuvant versus applied alone (cotton aphid [9]; rates below the recommended maximum rate for aphid control): much higher when tank-mixed with the adjuvant than when applied alone | Cotton aphid % control 2 days after treatment (cotton aphid [8]; in vivo): 21 (84) % | Cotton aphid count 2 days after treatment (cotton aphid [8]; in vivo): 21 (84)

CC[S+]([O-])CCSP(=O)(OC)OC (stereo not shown) [Oxydemeton-methyl]
Cotton aphid count 2 days after treatment (cotton aphid [9]): 74 | Cotton aphid % control 2 days after treatment (cotton aphid [9]): 94% | aphid control on tank-mixing with the adjuvant (cotton aphid [9]; in vivo): Improvement in aphid control

COP(=S)(OC)SCn1nnc2ccccc2c1=O [azinphosmethyl]
Total Number of larvae from a six meter plot, 3 DAT L2 ([10]; azinphosmethyl 0.19 lb ai/A): 4.0 | Total Number of larvae from a six meter plot, 7 DAT L2 ([10]; azinphosmethyl 0.19 lb ai/A): 1.3 | Total Number of larvae from a six meter plot, 3 DAT L4 ([10]; azinphosmethyl 0.19 lb ai/A): 11.7 | Total Number of larvae from a six meter plot, 7 DAT L4 ([10]; azinphosmethyl 0.19 lb ai/A): 6.0 | Total Number of larvae from a six meter plot, 3 DAT L2 ([10]; azinphosmethyl 0.30 lb ai/A): 5.0 | Total Number of larvae from a six meter plot, 7 DAT L2 ([10]; azinphosmethyl 0.30 lb ai/A): 1.0 | Total Number of larvae from a six meter plot, 3 DAT L4 ([10]; azinphosmethyl 0.30 lb ai/A): 7.7 | Total Number of larvae from a six meter plot, 7 DAT L4 ([10]; azinphosmethyl 0.30 lb ai/A): 3.0 | Total Number of larvae from a six meter plot, 7 DAT L2 ([10]; azinphosmethyl 0.375 lb ai/A, control 3.0): 6.0 | Total Number of larvae from a six meter plot, 3 DAT L2 ([10]; azinphosmethyl 0.375 lb ai/A, control 29.7): 0.7 | Total Number of larvae from a six meter plot, 7 DAT L4 ([10]; azinphosmethyl 0.375 lb ai/A, control 24.3): 5.0 | Total Number of larvae from a six meter plot, 3 DAT L4 ([10]; azinphosmethyl 0.375 lb ai/A, control 79.3): 12.3
